Results published in patent publication US20140235649A1, “USE OF PHOSPHATASE INHIBITORS OR HISTONE DEACETYLASE INHIBITORS TO TREAT DISEASES CHARACTERIZED BY LOSS OF PROTEIN FUNCTION” (LIXTE BIOTECHNOLOGY, INC., priority 2011, published 2014).
Entries after “also recorded” stand apart in the source; their conditions may differ. One block for each compound: values may come before it.

What was measured:
[1] = test system: beta-glucocerebrosidase (GBA); assay: GBA levels in human cells from Gaucher's disease type 1 / type 3 patients (Examples 2-4)
[2] = test system: SDHB protein; assay: SDHB protein levels in tumor cells from SDHB derived tumors (Examples 9-10); details: Example 9, versus untreated cells
[3] = test system: missense glucocerebrosidase; details: previously found (REF); cited from earlier work
[4] = test system: VHL protein; assay: VHL protein levels in tumor cells from VHL derived tumors (Examples 6-7); details: Example 6, versus untreated cells
[5] = test system: mutant SDHB protein; assay: Immunoprecipitation of mutant SDHB: ubiquitination and Hsp90 binding; format: cell-based, human; details: immunoprecipitated ΔSDHB-R49Q (FIG. 14E)
Description: Protein was extracted from cell cultures using IP lysis buffer with Halt proteinase inhibitor cocktail (Thermo Scientific). Four hundred microgram of total protein was precipitated with Flag antibody (1:200, Origene) using a DynaBeads Protein G immunoprecipitation kit (Invitrogen). Proteins were precipitated overnight at 4° C. and eluted for Western blot analysis.

[6] = test system: ΔSDHB-L65P; assay: ΔSDHB-L65P protein half-life through CHX treatment, Western blot, HeLa cells; format: cell-based, human
Description: Western blot analysis was performed as previously described with minor modifications (Zhuang et al, 2011). Microdissected tumor tissue and cell pellets were extracted for protein using RIPA lysis buffer supplemented with Halt proteinase inhibitor cocktail (Thermo Scientific, Rockford, Ill.). Protein was vortexed at 4° C. for 20 min and centrifuged in 12,000 g for 10 min at 4° C. Supernatant was collected and protein quantity was identified through a Bio-Rad (Hercules, Calif.) Protein Assay kit. Equal amount of proteins were separated on NuPAGE 4-12% Bis-Tris gel (Invitrogen, Carlsbad, Calif.) and transferred to PVDF membranes (Invitrogen). Membranes were blocked in 5% skim dried milk in PBST and blotted with primary antibody. Protein expression was identified through chemiluminescence kit (Thermo Scientific). The following antibodies were used: SDHA (1:1,000, Cell Signaling Technology, Beverly, Mass.), SDHB (1:1,000, Sigma-Aldrich, St. Louis Mo.), Flag (1:2,000, Origene, Rockville, Md.), Ubiquitin (1:1,000, Abcam, Cambridge, Mass.), HA (1:2,000, Origene), Hsp90 (1:1,000, Cell Signaling Technology) and β-Actin (1:1,000, Santa Cruz Biotechnology, Inc., Santa Cruz, Calif.).
HeLa cells were maintained in DMEM containing 10% FBS (Invitrogen). Cells were transfected with SDHB vectors by FuGENE 6 transfection reagent (Roche, Indianapolis, Ind.). Medium was changed 4 hours after transfection and cells were maintained 48 hours before cycloheximide (20 μg/mL, Sigma-Aldrich) treatment.
Ubiquitin-HA vector was described previously (Kamitani et al. (1997)). Human wild type SDHB gene was cloned into pCMV6-Entry vector (Origene). Hot spot missense mutations in SDHB related PHEOs/PGLs based on previous findings (Van Nederveen et al. (2006); Henderson et al. (2009); Pawlu et al. (2005)). Mutagenesis was performed based on wild type SDHB vector using a Quikchange Lightning Site-Directed Mutagenesis Kit (Agilent, Santa Clara, Calif.). For each mutant, the sequence of SDHB gene was verified through sequencing the entire coding region of the gene. Vectors were purified through PureLink HiPure Plasmid Maxiprep kit (Invitrogen) for transfection and cell free protein expression.

[7] = test system: ΔGBA-N370S; assay: Metabolic [35S] pulse chase assay, HeLa cells with ΔGBA-N370S vector; format: cell-based, human; details: N370S mutant
Description: (§1) Human GBA gene was cloned into pCMV6-Entry vector (Origene; Rockville, Md.). Mutagenesis was performed using a QuikChange Lightning Site-directed mutagenesis kit (Agilent; Santa Clara, Calif.). Mutagenesis reaction was conducted using primers with N370S and L444P mutation sites. For each mutant, the sequence of GBA genes was verified by sequencing the entire coding regions.
(§2) Metabolic [^35S] pulse chase assay was performed as previously described with minor modifications (16). A total of 5×10^5 HeLa cells were transfected with GBA vectors through FuGene 6 transfection reagent (Roche; Indianapolis, Ind.). Cells were used for pulse chase assay 24 hr after transfection. Cells were starved in methionine-depleted medium for 15 min followed by 15 min labeling in methionine-free Delbecco's modified Eagle medium (DMEM) supplemented with 10% FBS and 0.2 mCi/mL [^35S]-methionine ([…] specific activity, Perkin Elmer). The cells were then chased in DMEM with 10% FBS and 3 mg/mL methionine. Cells were extracted for protein within various durations after radioactive labeling. Cells were lysed in RIPA lysis buffer containing with Halt proteinase inhibitor cocktail (Thermo; Waltham, Mass.). GBA proteins were purified through immunoprecipitation using 200 ug total lysate with Flag antibody (Origene; Rockville, Md.). Precipitated proteins were resolved on NuPAGE Novex 4-12% Bis-Tris Gel (Invitrogen; Carlesbad, Calif.) and measured by liquid scintillation counting. The gel was fixed and incubated in EN3HANCE (Perkin Elmer; Waltham, Mass.) for 45 min and dried for X-ray film exposure.

[8] = test system: ΔGBA-L444P; assay: Metabolic [35S] pulse chase assay, HeLa cells with ΔGBA-L444P vector; format: cell-based, human; details: L444P mutant
Description: as §1, §2

Structure (SMILES): CN1CCN(C(=O)C2C(C(=O)O)[C@H]3CC[C@@H]2O3)CC1 (stereo partly shown) [LB100]
GBA levels / amount of GBA ([1]; Gaucher's disease type 1 and type 3 cells, 24 hours (Example 3, FIG. 1-3)): increased; also recorded: increased in all treatments, and the increase was not dose-dependent; also recorded: significantly higher than in untreated cells | GBA levels ([1]; Gaucher's disease type 3 cells, 24 hours (Example 2)): significantly higher than in untreated cells

Hsp90 binding to mutant SDHB [5]: also decreased
Structure (SMILES): O=C(CCCCCNC(=O)c1ccccc1S)Nc1ccccc1 [LB-201]
SDHB levels [2]: significantly higher than in untreated cells | degradation of SDHB [2]: decreased degradation of SDHB | co-translational degradation of missense glucocerebrosidase [3]: protect missense glucocerebrosidase from co-translational degradation | VHL levels [4]: significantly higher than in untreated cells | degradation of VHL [4]: decreased degradation of VHL | SDHB mutant protein ubiquitination [5]: decreased SDHB mutant protein ubiquitination | degradation / loss of mutant SDHB protein ([6]; L65P mutant): slowed the degradation of mutant protein; also recorded: decreased the loss of mutant SDHB

Structure (SMILES): CC1=C(O)C(=O)C=C2C1=CC=C1[C@@]2(C)CC[C@@]2(C)[C@@H]3C[C@](C)(C(=O)O)CC[C@]3(C)CC[C@]12C [celastrol]
increase in radioactively labeled protein quantity [7]: 33% | increase in [35S]-GBA residue [8]: 104% | SDHB protein remaining intact ([6]; L65P, after a 2 hr CHX treatment): more than 50%
